Patent publication US9844543B2, “Method of treating or preventing hyperlipidemia with caffeamide derivatives” (priority 2015, dated 2017)

Columns and labels:
Type in all cases: in vivo, C57BL/6J mice
[1] = Measurement of hepatic lipids in high-fat diet-fed mice; settings: 0.01 g/kg/day oral, week 12
Description: (§1) All animal procedures were performed as per guidelines provided by the Institutional Animal Care and Use Committee of Central Taiwan University of Science and Technology. Firstly, C57BL/6J mice (4-5 weeks old) were purchased from the National Laboratory Animal Breeding and Research Center, National Science Council, Taiwan, and were maintained on a 12-hour light/dark cycle (light cycle: 7 a.m. to 7 p.m.). Seven days after acclimation, the C57BL/6J mice were divided randomly into two groups: the control group (CON, n=9) was fed with low-fat diet (Diet 12450B, Research Diets, Inc., New Brunswick, N.J. 08901, USA), whereas the experimental group (n=36) was fed with a 45% high-fat diet (Diet 12451, Research Diets, Inc., New Brunswick, N.J. 08901, USA) for 12 weeks. […] The body weight was measured weekly throughout the experimentation. […] Livers and white adipose tissue (WATs, including epididymal mesenteric, and retroperitoneal WAT) were excised according to the defined anatomical landmarks, and the weight of the tissues was measured. […]
For hepatic lipid extraction, a 0.375 g liver samples were homogenized with 1 mL distill water for 5 minutes. The dried pellet was finally resuspended in 0.5 mL ethanol and analyzed using a triglycerides kit as used for analyzing the serum lipids set forth above.

[2] = Body weight, weight gain and absolute tissue weights in high-fat diet-fed mice
Description: (§2) All animal procedures were performed as per guidelines provided by the Institutional Animal Care and Use Committee of Central Taiwan University of Science and Technology. Firstly, C57BL/6J mice (4-5 weeks old) were purchased from the National Laboratory Animal Breeding and Research Center, National Science Council, Taiwan, and were maintained on a 12-hour light/dark cycle (light cycle: 7 a.m. to 7 p.m.). Seven days after acclimation, the C57BL/6J mice were divided randomly into two groups: the control group (CON, n=9) was fed with low-fat diet (Diet 12450B, Research Diets, Inc., New Brunswick, N.J. 08901, USA), whereas the experimental group (n=36) was fed with a 45% high-fat diet (Diet 12451, Research Diets, Inc., New Brunswick, N.J. 08901, USA) for 12 weeks. The low-fat diet was composed of protein 20%, carbohydrate 70% and fat 10%, whereas the high-fat diet was composed of protein 20%, carbohydrate 35%, and fat 45% (of total energy, % kcal). After 8-week diet-induction period, the high-fat treated mice were randomly subdivided into four groups (n=9 per group), namely, control group (CON), high-fat control group (HF), TS group (including T1 and T2, representing mice treated with the compound of the present invention using a dosage of 10 mg/kg/day and 20 mg/kg/day, respectively), rosiglitazone treated group (Rosi; 1% methylcellulose 10 mg/kg body weight, obtained from GlaxoSmithKline, product number: BRL49653 C). TS and Rosi group were administrated through oral gavage one time per day from the 9th to the 12th week of the experiment while the mice were still on the high-fat diet. On the other hand, CON and HF groups were treated with vehicle only. The body weight was measured weekly throughout the experimentation. By the end of the experimentation, food was deprived from the mice (from 10 p.m. to 10 a.m.) On the next day (the 85th day), all mice were sacrificed for blood and tissue collection and analysis. The mice were untreated with TS or Rosi at the 85th day. Livers and white adipose tissue (WATs, including epididymal mesenteric, and retroperitoneal WAT) were excised according to the defined anatomical landmarks, and the weight of the tissues was measured. Tissues were immediately frozen using liqid nitrogen and then kept at −80° C. for the analysis of target gene expression. Heparin (30 units/mL, Sigma) was added into blood sample. Plasma samples were collected by centrifugation at […] for 15 minutes at 4° C. The separation of the plasma was finished within 30 minutes. Plasma was obtained for leptin assay.
Body weight of mice was monitored and measured daily at the same time throughout the experimentation. The differences between the body weight of the next day and the former day is defined as body weight gain. The pellet food was weighed and followed by being placed in the cage food container. Unconsumed pellet high-fat food was discarded each day and fresh pellet of high-fat diet was provided to ensure consistent food quality throughout the experimentation. The high-fat food was stored at 4° C.

[3] = Blood parameters assay (TG, FFA, TC, adiponectin, leptin) in high-fat diet-fed mice; settings: 0.01 g/kg/day oral
Description: as §2, with “Seven days after acclimation, the C57BL/6J mice were divided randomly into two groups: the control group (CON, n=9) was fed with low-fat diet (Diet 12450B, Research Diets, Inc., New Brunswick, N.J. 08901, USA), whereas the experimental group (n=36) was fed with a 45% high-fat diet (Diet 12451, Research Diets, Inc., New Brunswick, N.J. 08901, USA) for 12 weeks. The low-fat diet was composed of protein 20%, carbohydrate 70% and fat 10%, whereas the high-fat diet was composed of protein 20%, carbohydrate 35%, and fat 45% (of total energy, % kcal).” left out
Blood samples (0.8 mL) were collected from the retro-orbital sinus of fasting mice and the plasma triglycerides (TG), total cholesterol (TC), and free fatty acids (FFA) were analyzed using commercial assay kits according to the manufacture's directions (Triglycerides-E test, Cholesterol-E test, and FFA-C test, Wako Pure Chemical, Osaka, Japan).
The levels of adiponectin and leptin were analyzed by ELISA using commercial assay kits according to manufacture's directions (mouse/rat adiponectin ELISA kit, B-Bridege International, GmbH, Germany, and mouse leptin ELISA kit, Morinaga, Yokohama, Japan).

[4] = system: adipocytes from epididymal white adipose tissue; assay: Histopathology of epididymal white adipose tissue (adipocyte size); settings: high-fat diet mice, 10 mg/kg/day oral; HF 6765.87, CON 3263.78
Description: as §1, with “weeks. The low-fat diet was composed of protein 20%, carbohydrate 70% and fat 10%, whereas the high-fat diet was composed of protein 20%, carbohydrate 35%, and fat 45% (of total energy, % kcal).” for “weeks.”

[5] = 0.01 g/kg/day oral gavage weeks 9-12

CN(CCOc1ccc(CC2SC(=O)NC2=O)cc1)c1ccccn1 (centres unmarked) [Rosi, rosiglitazone]
Liver lipids: Total lipid [1]: 60.2 ± 5.4 mg/g | Liver lipids: Triacylglycerol [1]: 42.6 ± 5.8 µmol/g | Absolute tissue weight BAT [2, 5]: 0.210 ± 0.023 g | Absolute tissue weight MWAT [2, 5]: 0.238 ± 0.033 g | Absolute tissue weight RWAT [2, 5]: 0.334 ± 0.057 g | Absolute tissue weight Visceral fat [2, 5]: 1.330 ± 0.138 g | Absolute tissue weight EWAT ([2]; 0.01 g/kg/day oral gavage weeks 9-12, mean ± S.E. n=9): 1.003 ± 0.103 g | Weight gain ([2]; 0.01 g/kg/day oral gavage weeks 9-12, week 12): 0.91 ± 1.45 g | Blood Adiponectin ([3]; week 12): 7.51 ± 0.53 ng/mL | Blood FFA ([3]; week 12): 1.52 ± 0.16 meq/L | Blood Leptin ([3]; week 12): 2.063 ± 0.111 µg/mL | Blood TC ([3]; week 12): 134.9 ± 3.5 mg/dL | Blood TG ([3]; week 12, fasting): 81.8 ± 5.8 mg/dL | average area of the cut of the adipocytes (epididymal white adipose tissue) [4]: 4600 µm²
